Measurements from ChEMBL document CHEMBL3046217, “Synthesis, antimicrobial, antioxidant, anti-inflammatory, and analgesic activities of some new 3-(2-thienyl)pyrazole-based heterocycles” (Med Chem Res, 2012).
Converted amounts (≈) assume the structure as drawn. The source made the active and inactive calls. The rule behind the calls is not given here.

How the values were obtained:
Pseudomonas aeruginosa = assay: Antimicrobial activity against Pseudomonas aeruginosa ATCC 29953 after 24 hr by agar diffusion method; format: functional; settings: for MIC: Pseudomonas aeruginosa, ATCC 29953, 24 h
Saccharomyces cerevisiae = assay: Antimicrobial activity against Saccharomyces cerevisiae after 24 hr by agar diffusion method; format: functional; settings: for MIC: Saccharomyces cerevisiae, 24 h
Bacillus spizizenii = assay: Antimicrobial activity against Bacillus subtilis subsp. spizizenii ATCC 6633 after 24 hr by agar diffusion method; format: functional; settings: for MIC: Bacillus spizizenii, ATCC 6633, 24 h
Enterococcus faecalis = assay: Antimicrobial activity against Enterococcus faecalis ATCC 29212 after 24 hr by agar diffusion method; format: functional; settings: for MIC: Enterococcus faecalis, ATCC 29212, 24 h
Candida albicans = assay: Antimicrobial activity against Candida albicans NRRLY-477 after 24 hr by agar diffusion method; format: functional; settings: for MIC: Candida albicans, NRRLY-477, 24 h
Mycolicibacterium phlei = assay: Antimicrobial activity against Mycobacterium phlei after 24 hr by agar diffusion method; format: functional
Salmonella typhi = assay: Antimicrobial activity against Salmonella enterica subsp. enterica serovar Typhi after 24 hr by agar diffusion method; format: functional; settings: for MIC: Salmonella enterica, 24 h
Enterobacter cloacae = assay: Antimicrobial activity against Enterobacter cloacae ATCC 3047 after 24 hr by agar diffusion method; format: functional; settings: for MIC: Enterobacter cloacae, ATCC 3047, 24 h
Staphylococcus aureus = assay: Antimicrobial activity against Staphylococcus aureus ATCC 29213 after 24 hr by agar diffusion method; format: functional; settings: for MIC: Staphylococcus aureus, ATCC 29213, 24 h
Escherichia coli = settings: ATCC 25922
Description: Antimicrobial activity against Escherichia coli ATCC 25922 after 24 hr by agar diffusion method

Klebsiella pneumoniae = assay: Antimicrobial activity against Klebsiella pneumoniae ATCC 13883 after 24 hr by agar diffusion method; format: functional; settings: for MIC: Klebsiella pneumoniae, ATCC 13883, 24 h
[1] = system: Radical scavenging activity; assay: Antioxidant activity assessed as as DPPH radical scavenging activity by spectrophotometry; format: functional
Mus musculus = assay: Analgesic activity in Mus musculus Swiss albino (mouse) assessed as inhibition of acetic acid-induced writhing at 20 mg/kg, po administered 30 min before acetic acid challenge measured for 20 min after acetic acid injection […]; format: functional, organism-based; set-up: dose 20 mg/kg
Rattus norvegicus = assay: Anti-inflammatory activity in Rattus norvegicus Sprague-Dawley (rat) assessed as inhibition of carrageenan-induced paw edema at 20 mg/kg, po administered 1 hr before carrageenan challenge and measured hourly for 4-hr post drug administration by mercury plethysmometer; format: functional, organism-based; set-up: dose 20 mg/kg
Aspergillus niger = assay: Antimicrobial activity against Aspergillus niger after 24 hr by agar diffusion method; format: functional, organism-based

| Structure (SMILES) | inhibition zone (IZ) (Pseudomonas aeruginosa) | inhibition zone (IZ) (Saccharomyces cerevisiae) | inhibition zone (IZ) (Bacillus spizizenii) | MIC (Bacillus spizizenii) | inhibition zone (IZ) (Enterococcus faecalis) | inhibition zone (IZ) (Candida albicans) | inhibition zone (IZ) (Mycolicibacterium phlei) | inhibition zone (IZ) (Salmonella typhi) | inhibition zone (IZ) (Enterobacter cloacae) | MIC (Saccharomyces cerevisiae) | inhibition zone (IZ) (Staphylococcus aureus) | IZ (Escherichia coli) | inhibition zone (IZ) (Klebsiella pneumoniae) | IC50 [1] | MIC (Enterococcus faecalis) | inhibition (Mus musculus) | inhibition (Rattus norvegicus) | Activity (Aspergillus niger) | MIC (Staphylococcus aureus) | MIC (Enterobacter cloacae) | also measured |
| --- | --- | --- | --- | --- | --- | --- | --- | --- | --- | --- | --- | --- | --- | --- | --- | --- | --- | --- | --- | --- | --- |
| O=C(O)c1cn(C2CC2)c2cc(N3CCNCC3)c(F)cc2c1=O [CIPROFLOXACIN] | 24 mm | inactive | 22 mm | 10.4 µg/mL (≈ 31.4 µM) | 23 mm | inactive | 22 mm | 21 mm | – | – | – | – | – | – | – | – | – | – | – | – | MIC (Salmonella typhi): 41.6 µg/mL (≈ 126 µM) |
| CC(=O)N1CCN(c2ccc(OCC3COC(Cn4ccnc4)(c4ccc(Cl)cc4Cl)O3)cc2)CC1 (racemic) [KETOCONAZOLE] | inactive | 23 mm | inactive | – | inactive | 22 mm | inactive | inactive | inactive | 5.2 µg/mL (≈ 9.78 µM) | inactive | inactive | inactive | – | – | – | – | – | – | – | MIC (Candida albicans): 10.4 µg/mL (≈ 19.6 µM) |
| O=c1oc2ccccc2cc1-c1csc(N/N=C\c2cn(-c3ccccc3)nc2-c2cccs2)n1 | inactive | inactive | 21 mm | 167 µg/mL (≈ 336 µM) | 22 mm | inactive | inactive | inactive | 14 mm | – | 11 mm | inactive | 14 mm | 25 µg/mL (≈ 50.4 µM) | 83.3 µg/mL (≈ 168 µM) | Active | Active | inactive | – | – | – |
| Cc1ccc(NC(=S)N2N=C(c3ccc(Cl)cc3)CC2c2cn(-c3ccccc3)nc2-c2cccs2)cc1 (centres undefined) | inactive | inactive | 21 mm | 167 µg/mL (≈ 301 µM) | 21 mm | 15 mm | 13 mm | inactive | 16 mm | – | 15 mm | inactive | 21 mm | 500 µg/mL (≈ 902 µM) | 167 µg/mL (≈ 301 µM) | Active | Active | inactive | – | – | MIC (Klebsiella pneumoniae): 333 µg/mL (≈ 601 µM) |
| C(=N/Nc1nc(-c2cc3ccccc3o2)cs1)/c1cn(-c2ccccc2)nc1-c1cccs1 | 14 mm | inactive | 23 mm | 167 µg/mL (≈ 356 µM) | 15 mm | inactive | inactive | inactive | 15 mm | – | 21 mm | inactive | 15 mm | 25 µg/mL (≈ 53.5 µM) | – | Active | Active | inactive | 167 µg/mL (≈ 356 µM) | – | – |
| Cc1nc(N/N=C\c2cn(-c3ccccc3)nc2-c2cccs2)sc1/N=N/c1ccc(F)cc1 | 19 mm | 31 mm | 22 mm | 167 µg/mL (≈ 342 µM) | 16 mm | 17 mm | inactive | inactive | 26 mm | 20.8 µg/mL (≈ 42.7 µM) | 21 mm | inactive | 18 mm | 25 µg/mL (≈ 51.3 µM) | – | Active | Active | inactive | 41.8 µg/mL (≈ 85.7 µM) | 41.6 µg/mL (≈ 85.3 µM) | MIC (Pseudomonas aeruginosa): 333 µg/mL (≈ 684 µM); MIC (Candida albicans): 167 µg/mL (≈ 342 µM); MIC (Klebsiella pneumoniae): 167 µg/mL (≈ 342 µM) |
| NC(=S)N/N=C\c1cn(-c2ccccc2)nc1-c1cccs1 | 15 mm | 30 mm | 29 mm | 20.8 µg/mL (≈ 63.5 µM) | 13 mm | 16 mm | 16 mm | 28 mm | 26 mm | 20.8 µg/mL (≈ 63.5 µM) | 21 mm | inactive | 28 mm | 500 µg/mL (≈ 1530 µM) | – | Active | Active | inactive | 83.3 µg/mL (≈ 254 µM) | 20.8 µg/mL (≈ 63.5 µM) | MIC (Salmonella typhi): 20.8 µg/mL (≈ 63.5 µM); MIC (Klebsiella pneumoniae): 20.8 µg/mL (≈ 63.5 µM) |
| N/C(=N/N=C\c1cn(-c2ccccc2)nc1-c1cccs1)SCC(=O)Nc1cccs1 | 15 mm | inactive | 23 mm | 83.3 µg/mL (≈ 179 µM) | 21 mm | 15 mm | inactive | inactive | 28 mm | – | 28 mm | inactive | 18 mm | 1000 µg/mL (≈ 2140 µM) | 83.3 µg/mL (≈ 179 µM) | Active | Active | inactive | 20.8 µg/mL (≈ 44.6 µM) | 20.8 µg/mL (≈ 44.6 µM) | MIC (Klebsiella pneumoniae): 167 µg/mL (≈ 357 µM) |
| Clc1ccc(C2=NNC(c3cn(-c4ccccc4)nc3-c3cccs3)C2)cc1 (centres undefined) | 26 mm | 31 mm | 17 mm | 333 µg/mL (≈ 823 µM) | 21 mm | 17 mm | inactive | inactive | 21 mm | 20.8 µg/mL (≈ 51.4 µM) | 20 mm | inactive | inactive | 750 µg/mL (≈ 1850 µM) | 41.6 µg/mL (≈ 103 µM) | Active | Active | inactive | 333 µg/mL (≈ 823 µM) | 83.3 µg/mL (≈ 206 µM) | MIC (Pseudomonas aeruginosa): 167 µg/mL (≈ 411 µM); MIC (Candida albicans): 167 µg/mL (≈ 411 µM) |
| C(=N/Nc1nc2nc3ccccc3nc2s1)/c1cn(-c2ccccc2)nc1-c1cccs1 | 28 mm | 28 mm | 26 mm | 41.6 µg/mL (≈ 91.7 µM) | 21 mm | inactive | 15 mm | inactive | 18 mm | 41.6 µg/mL (≈ 91.7 µM) | 21 mm | inactive | inactive | 500 µg/mL (≈ 1100 µM) | 167 µg/mL (≈ 367 µM) | Active | Active | inactive | 333 µg/mL (≈ 735 µM) | 333 µg/mL (≈ 735 µM) | MIC (Pseudomonas aeruginosa): 41.6 µg/mL (≈ 91.7 µM) |
| O=C(O)Cc1ccccc1Nc1c(Cl)cccc1Cl | – | – | – | – | – | – | – | – | – | – | – | – | – | – | – | Active | Active | – | – | – | – |
| O=C1CS/C(=N\N=C/c2cn(-c3ccccc3)nc2-c2cccs2)N1 | inactive | 29 mm | 19 mm | 167 µg/mL (≈ 453 µM) | 15 mm | inactive | inactive | inactive | 13 mm | 41.6 µg/mL (≈ 113 µM) | 29 mm | inactive | inactive | 500 µg/mL (≈ 1360 µM) | – | Active | Active | inactive | 20.8 µg/mL (≈ 56.6 µM) | – | – |
| O=C(/C=C/c1cn(-c2ccccc2)nc1-c1cccs1)c1ccc(Cl)cc1 | 19 mm | 29 mm | 21 mm | 167 µg/mL (≈ 426 µM) | 21 mm | 18 mm | 15 mm | 24 mm | 24 mm | 20.8 µg/mL (≈ 53.2 µM) | 21 mm | inactive | 18 mm | 1000 µg/mL (≈ 2560 µM) | 83.3 µg/mL (≈ 213 µM) | Active | Active | inactive | 167 µg/mL (≈ 426 µM) | 41.6 µg/mL (≈ 106 µM) | MIC (Pseudomonas aeruginosa): 333 µg/mL (≈ 853 µM); MIC (Candida albicans): 167 µg/mL (≈ 426 µM); MIC (Salmonella typhi): 83.3 µg/mL (≈ 213 µM); MIC (Klebsiella pneumoniae): 167 µg/mL (≈ 426 µM) |
